The first test concerns diamondback moth (Plutella xylostella). The experiment in a line: Test Example 1: spray of test liquid on cabbage plant, control efficacy against diamondback moth larvae. The format is in vivo. The following applies: 120 h, active ingredient concentration 500 ppm, 20 ml per cup sprayed on cabbage, 10 third-instar larvae, counted after 5 days.
Regarding `COC(=O)NNc1cc(C2=NOC(C)(c3ccccc3)C2)ccc1Cl` (centres unmarked) [compound number 1-2, reference compound], the pest or weed control at 500 ppm was 0%.

Compound `N#Cc1ccc(C(=O)Nc2cccc(C3=NOC(c4cc(Cl)cc(Cl)c4)(C(F)(F)F)C3)c2)cc1` (centres unmarked) [present compound (5), N-(3-(5-(3,5-dichlorophenyl)-4,5-dihydro-5-trifluoromethyl-3-isoxazolyl)phenyl)-4-cyanobenzamide] came in with a pest or weed control at 500 ppm of at least 80%.

`O=C(Nc1cccc(C2=NOC(c3cc(Cl)cc(Cl)c3)(C(F)(F)F)C2)c1)c1cccnc1Cl` (centres unmarked) [present compound (7), N-(3-(5-(3,5-dichlorophenyl)-4,5-dihydro-5-trifluoromethyl-3-isoxazolyl)phenyl)-2-chloronicotinamide] had a pest or weed control at 500 ppm of at least 80%.

Take `Cc1ccc(C2=NOC(c3cc(Cl)cc(Cl)c3)(C(F)(F)F)C2)cc1NC(=O)c1ccccc1F` (centres unmarked) [present compound (13), N-(5-(5-(3,5-dichlorophenyl)-4,5-dihydro-5-trifluoromethyl-3-isoxazolyl)-2-methylphenyl)-2-fluorobenzamide]: the pest or weed control at 500 ppm is at least 80%.

`Cc1ccc(C2=NOC(c3cc(Cl)cc(Cl)c3)(C(F)(F)F)C2)cc1NC(=O)c1ccc(F)cc1` (centres unmarked) [present compound (15), N-(5-(5-(3,5-dichlorophenyl)-4,5-dihydro-5-trifluoromethyl-3-isoxazolyl)-2-methylphenyl)-4-fluorobenzamide] had a pest or weed control at 500 ppm of at least 80%.

Take `Cc1ccc(C2=NOC(c3cc(Cl)cc(Cl)c3)(C(F)(F)F)C2)cc1NC(=O)c1cccc(Cl)c1` (centres unmarked) [present compound (17), N-(5-(5-(3,5-dichlorophenyl)-4,5-dihydro-5-trifluoromethyl-3-isoxazolyl)-2-methylphenyl)-3-chlorobenzamide]: the pest or weed control at 500 ppm is at least 80%.

`COc1ccc(C(=O)Nc2cc(C3=NOC(c4cc(Cl)cc(Cl)c4)(C(F)(F)F)C3)ccc2C)cc1` (centres unmarked) [present compound (30), N-(5-(5-(3,5-dichlorophenyl)-4,5-dihydro-5-trifluoromethyl-3-isoxazolyl)-2-methylphenyl)-4-methoxybenzamide] registered a pest or weed control at 500 ppm of at least 80%.

Consider `Cc1ccc(C2=NOC(c3cc(Cl)cc(Cl)c3)(C(F)(F)F)C2)cc1NC(=O)c1ccc(C(F)(F)F)cc1` (centres unmarked) [present compound (31), N-(5-(5-(3,5-dichlorophenyl)-4,5-dihydro-5-trifluoromethyl-3-isoxazolyl)-2-methylphenyl)-4-trifluoromethylbenzamide], for which the pest or weed control at 500 ppm was at least 80%.

`C/C=C/C(=O)Nc1cc(C2=NOC(c3cc(Cl)cc(Cl)c3)(C(F)(F)F)C2)ccc1C` (centres unmarked) [present compound (48), N-(5-(5-(3,5-dichlorophenyl)-4,5-dihydro-5-trifluoromethyl-3-isoxazolyl)-2-methylphenyl)crotonamide]: the pest or weed control at 500 ppm was at least 80%.

In turn, `Cc1ccc(C2=NOC(c3cc(Cl)cc(Cl)c3)(C(F)(F)F)C2)cc1NC(=O)N(C)C` (centres unmarked) [present compound (57), 3-(5-(5-(3,5-dichlorophenyl)-4,5-dihydro-5-trifluoromethyl-3-isoxazolyl)-2-methylphenyl)-1,1-dimethylurea] had a pest or weed control at 500 ppm of at least 80%.

`CCOC(=O)Nc1cc(C2=NOC(c3cc(Cl)cc(Cl)c3)(C(F)(F)F)C2)ccc1C` (centres unmarked) [present compound (60), N-(5-(5-(3,5-dichlorophenyl)-4,5-dihydro-5-trifluoromethyl-3-isoxazolyl)-2-methylphenyl)-O-ethylcarbamate] showed a pest or weed control at 500 ppm of at least 80%.

Turning to `Cc1ccc(C2=NOC(c3cc(Cl)cc(Cl)c3)(C(F)(F)F)C2)cc1NC(=O)OCC(C)C` (centres unmarked) [present compound (64), N-(5-(5-(3,5-dichlorophenyl)-4,5-dihydro-5-trifluoromethyl-3-isoxazolyl)-2-methylphenyl)-O-isobutylcarbamate], the pest or weed control at 500 ppm is at least 80%.

Turning to `CCc1ccc(C2=NOC(c3cc(Cl)cc(Cl)c3)(C(F)(F)F)C2)cc1NC(=O)CC(F)(F)F` (centres unmarked) [present compound (71), N-(3-(5-(3,5-dichlorophenyl)-4,5-dihydro-5-trifluoromethyl-3-isoxazolyl)-6-ethylphenyl)-3,3,3-trifluoropropionylamide], the pest or weed control at 500 ppm is at least 80%.

Turning to `Cc1c(NC(=O)CC(F)(F)F)cccc1C1=NOC(c2cc(Cl)cc(Cl)c2)(C(F)(F)F)C1` (centres unmarked) [present compound (72), N-(3-(5-(3,5-dichlorophenyl)-4,5-dihydro-5-trifluoromethyl-3-isoxazolyl)-2-methylphenyl)-3,3,3-trifluoropropionylamide], the pest or weed control at 500 ppm was at least 80%.

Consider `COc1ccc(C2=NOC(c3cc(Cl)cc(Cl)c3)(C(F)(F)F)C2)cc1NC(=O)CC(F)(F)F` (centres unmarked) [present compound (78), N-(5-(5-(3,5-dichlorophenyl)-4,5-dihydro-5-trifluoromethyl-3-isoxazolyl)-2-methoxyphenyl)-3,3,3-trifluoropropionylamide], for which the pest or weed control at 500 ppm was at least 80%.

Another test deals with summer fruit tortrix (Adoxophyes orana). Briefly: Test Example 2: artificial feed irrigated with test dilution, mortality of summer fruit tortrix larvae. The format is in vivo. Conditions: 168 h. As to the method: The formulation of the present compound (79) obtained according to Formulation Example 5 was diluted with water so as to have an active ingredient concentration of 2,500 ppm. Thus, a test dilution was prepared.
The bottom of a polyethylene cup having a diameter of 5.5 cm was covered with a filter paper having the same diameter. Artificial feed (Silkmate 2S; Nihon Nosan Kogyo K.K.) sliced in a thickness of 2 mm was placed on the filter paper, and 1 mL of the above-mentioned test dilution was irrigated on the artificial feed. After air-drying of the test dilution, a filter paper having a diameter of 5.5 cm was placed on the artificial feed, and 30 first-instar larvae of summer fruit tortrix (Adoxophyes orana) were released on this filter paper, after which the cup was closed with a lid. After 7 days, larvae of summer fruit tortrix were counted and the mortality was calculated by the following equation:
Mortality (t)=(Number of dead larvae/Number of released larvae)×100
The compound `COC(=O)Nc1cc(C2=NOC(c3cc(Cl)cc(Cl)c3)(C(F)(F)F)C2)ccc1Cl` (centres unmarked) [present compound (79), N-(5-(5-(3,5-dichlorophenyl)-4,5-dihydro-5-trifluoromethyl-3-isoxazolyl)-2-chlorophenyl)-O-methylcarbamate] showed a mortality at 2500 ppm of at least 80%.

The same test, now with this note: 168 h, active ingredient concentration 2,500 ppm, 1 mL on artificial feed, 30 first-instar larvae, counted after 7 days, read-out: Mortality.
Take `COC(=O)NNc1cc(C2=NOC(C)(c3ccccc3)C2)ccc1Cl` (centres unmarked) [compound number 1-2, reference compound]: the mortality at 2500 ppm was 0%.

The values are drawn from patent US20100137372A1, “ISOXAZOLINE COMPOUNDS AND THEIR USE IN PEST CONTROL” (priority 2007, published 2010).
